The conditions of this data set: 101.33 kPa, Liquid, Vibrating tube method.

Numbers after ± are expanded uncertainties.

With `CCCCn1cc[n+](C)c1.F[P-](F)(F)(F)(F)F` [1-butyl-3-methylimidazolium hexafluorophosphate], the mass density (298.1 K) turned out to be 1366.38 ± 1.7 kg/m3. Regarding `CCCCCCCCCn1cc[n+](C)c1.F[P-](F)(F)(F)(F)F` [1-nonyl-3-methylimidazolium hexafluorophosphate], the mass density was 1198.32 ± 0.2 kg/m3 (293.15 K) and 1194.34 ± 0.19 kg/m3 (298.15 K).

(Values after the NIST ThermoML archive (doi:10.1016/j.fluid.2011.04.017).)
